According to patent US12577238B2, “Compositions and methods for modulating inflammatory and degenerative disorder” (University of Southern California, priority 2018, dated 2026):
“Also recorded” adds a separate entry of the source.

T1: gp130 (Rattus norvegicus, UniProt P40190)
T1 construct: from tissue; host or cells: rat knee joint in vivo (Sprague-Dawley wild-type in the CFA model)
T1 sequence (P40190 23-918): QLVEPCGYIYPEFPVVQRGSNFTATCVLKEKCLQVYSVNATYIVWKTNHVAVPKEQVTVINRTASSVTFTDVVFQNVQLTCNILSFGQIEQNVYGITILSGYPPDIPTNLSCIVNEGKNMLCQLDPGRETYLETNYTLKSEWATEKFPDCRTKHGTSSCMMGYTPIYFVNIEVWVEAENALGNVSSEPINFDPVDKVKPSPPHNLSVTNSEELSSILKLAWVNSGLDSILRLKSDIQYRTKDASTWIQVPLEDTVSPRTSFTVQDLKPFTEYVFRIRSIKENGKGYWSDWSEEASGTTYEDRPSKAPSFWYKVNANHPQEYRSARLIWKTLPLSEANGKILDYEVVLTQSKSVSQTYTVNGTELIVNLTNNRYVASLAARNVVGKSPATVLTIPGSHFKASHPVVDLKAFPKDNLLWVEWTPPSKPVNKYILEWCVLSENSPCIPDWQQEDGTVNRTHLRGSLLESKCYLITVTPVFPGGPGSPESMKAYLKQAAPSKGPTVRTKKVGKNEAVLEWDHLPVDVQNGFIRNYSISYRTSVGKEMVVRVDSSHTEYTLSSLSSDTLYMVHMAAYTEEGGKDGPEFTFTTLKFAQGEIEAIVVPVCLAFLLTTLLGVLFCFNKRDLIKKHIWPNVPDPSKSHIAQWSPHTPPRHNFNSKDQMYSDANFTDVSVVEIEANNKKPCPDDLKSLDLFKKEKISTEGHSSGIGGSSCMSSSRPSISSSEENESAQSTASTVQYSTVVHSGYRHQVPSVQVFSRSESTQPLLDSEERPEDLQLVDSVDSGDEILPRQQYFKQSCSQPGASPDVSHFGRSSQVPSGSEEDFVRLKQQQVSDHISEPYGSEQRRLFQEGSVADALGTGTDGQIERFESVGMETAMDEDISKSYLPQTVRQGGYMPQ

T2: gp130 (Homo sapiens, UniProt P40189)
T2 construct: endogenous in cells; host or cells: adult human articular chondrocytes (three donors)
T2 sequence (P40189 23-918): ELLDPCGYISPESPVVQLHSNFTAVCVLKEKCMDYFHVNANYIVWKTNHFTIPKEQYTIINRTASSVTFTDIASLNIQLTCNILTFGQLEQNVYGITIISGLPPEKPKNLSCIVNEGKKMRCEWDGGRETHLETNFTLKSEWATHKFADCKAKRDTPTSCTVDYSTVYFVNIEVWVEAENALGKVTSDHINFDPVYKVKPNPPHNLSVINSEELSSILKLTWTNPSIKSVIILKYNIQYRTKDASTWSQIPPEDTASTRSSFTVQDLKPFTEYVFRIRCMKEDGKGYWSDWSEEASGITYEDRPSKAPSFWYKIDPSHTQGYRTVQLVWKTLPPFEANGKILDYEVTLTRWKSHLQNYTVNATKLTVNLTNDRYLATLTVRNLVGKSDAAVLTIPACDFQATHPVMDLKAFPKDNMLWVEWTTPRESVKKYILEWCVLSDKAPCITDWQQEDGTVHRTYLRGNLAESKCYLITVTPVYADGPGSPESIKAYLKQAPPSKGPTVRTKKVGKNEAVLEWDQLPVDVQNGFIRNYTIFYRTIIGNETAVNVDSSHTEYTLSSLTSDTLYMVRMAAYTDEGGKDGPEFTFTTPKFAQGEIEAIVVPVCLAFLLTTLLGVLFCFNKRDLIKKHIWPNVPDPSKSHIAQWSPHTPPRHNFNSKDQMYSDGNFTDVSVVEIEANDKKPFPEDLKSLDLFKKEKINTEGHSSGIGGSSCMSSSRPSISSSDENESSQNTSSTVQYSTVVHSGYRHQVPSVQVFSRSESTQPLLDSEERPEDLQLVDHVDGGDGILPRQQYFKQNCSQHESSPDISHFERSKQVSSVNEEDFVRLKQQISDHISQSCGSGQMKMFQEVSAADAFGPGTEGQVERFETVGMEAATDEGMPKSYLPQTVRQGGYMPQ


Assays:
gp130 [1] = target: T1, gp130; experiment: Injection into rat knees, pSTAT3 and MYC levels; format: in vivo; conditions: co-injection with RCGD 423 into rat knees
Experimental: Based on this, it was hypothesized that RCGD 423 acts through gp130 by promoting stable homodimers in the absence of ligand. To confirm that RCGD 423 acts through gp130, the gp130 null cell line Ba/F3 cells was used. Ba/F3 cells were transfected with either full-length gp130 or a mutant gp130 lacking domain 2 (ΔD2), which contains the predicted binding site for RCGD 423 (FIG. 7). […] To verify the specificity of RCGD 423 in vivo, the compound was injected into rat knees in the presence of the small molecule gp130 inhibitor SC144 or a blocking antibody specific for domain 2 of gp130. […] The ability of RCGD 423 to act via inducing formation of gp130 homodimers was then examined by expressing tagged versions of gp130 in 293T cells. In this system, only homodimeric complexes can contain both tagged versions of gp130 (FIG. 9).

[2] = system: pig articular cartilage explants; experiment: Matrix degradation assay, OSM-driven, pig articular cartilage explants; format: cell-based; conditions: driven by OSM
Experimental: FIG. 22A-C show matrix degradation assays.
72 hour exposure to the drug and OSM. […] Effect is concentration dependent and increases with increase in drug concentration.
(§1) Firstly, RCGD 423 was a hit from a library; this made the depth of the discovery surrounding the technology less comprehensive. Additionally, the physical properties of RCGD 423 (solubility, potency, functional groups) could be improved. Significant gains in these areas could potentially result in a first-in-class injectable for the treatment of post-traumatic OA. Moreover, the potential risks associated with promoting MYC stabilization and proliferation in gp130^+ cells as well as large increases in active STAT3 protein was of concern. […] These compounds were then screened in adult pig articular chondrocytes and cartilage explants, seeking compounds that could inhibit the catabolic effects of OSM but not drive increases in MYC and pSTAT3 protein levels. […] Together, these preliminary data identify CX-011 (B8) as a highly anti-inflammatory, anti-catabolic alternative to RCGD 423, with increased “drug-like” properties and reduced potential molecular liabilities.

[3] = system: adult pig articular chondrocytes; experiment: Proteins mediating pro-inflammatory signals with or without OSM; format: cell-based
Text: as §1

gp130 [4] = target: T2, gp130; experiment: OSM-mediated activation of gp130 in adult human articular chondrocytes; format: cell-based; conditions: three independent donors
Text: 423F is the positive control drug. Adult human articular chondrocytes from three independent donors were used to generate the results.
Adult human articular chondrocytes from three independent donors were used to generate the results.
Adult human articular chondrocytes from three independent donors were used.

[5] = system: adult pig articular chondrocytes; experiment: Western blot of signaling proteins (pSTAT3, MYC, MAPK, AKT, NF-κB) in pig articular chondrocytes; format: cell-based; conditions: for levels of active STAT3 (pSTAT3) and MYC proteins: Western blot, analogs at 10 μM; for activation of the MAPK, AKT and NF-κB pathways: adult pig articular chondrocytes
Experimental: (A) Class 1 molecules (marked by red arrows) activate STAT3 and MYC signaling pathways wile Class 2 molecules (blue arrows) have no stimulatory effects on STAT3 and MYC signaling in chondrocytes as determined by western blot analysis. (B) Structures of the most prominent Class 1 and Class 2 molecules. […] All drugs were tested at 10 μM and assessed using Western Blot.
All drugs tested at 10 μM and assessed using Western Blot.
(§2) To begin to address the mechanism of action of RCGD 423, adult pig chondrocytes were incubated with the drug, IL-6 family cytokines or the pro-catabolic cytokines TNF-α and IL-1β and measured levels of various proteins downstream of these cytokines that are known to drive catabolic responses (FIG. 3).
as §1

ADAMTS4/5 and MMP13 = experiment: qPCR for proteolytic enzymes in adult pig chondrocytes; format: cell-based
Experimental: as §2

MMP13 and ADAMTS4 = experiment: OSM-induced MMP13 and ADAMTS4 levels; format: cell-based

Molecule | breakdown of collagen and aggrecan (aggrecan-neo, collagen-neo epitopes) [2] | OSM-mediated activation of gp130 (gp130 [4]) | levels of active STAT3 (pSTAT3) and MYC proteins [5] | further results
O=C(NNc1nc2cc(F)ccc2n2cccc12)c1cnccn1 [SC144] | – | – | – | blockade of signaling downstream of RCGD 423 (gp130 [1]): completely inhibited signaling downstream of RCGD 423; also recorded: could be blocked by co-injection
Cc1ccc(-c2cccc(NC(=O)c3ccccn3)n2)cc1 [B839] | strongly prevent the breakdown of collagen and aggrecan | – | – | –
Cc1ccc(-c2csc(NC(=O)c3ccno3)n2)cc1 [B8] | – | inhibit OSM-mediated activation of gp130 | – | increases in proteins mediating pro-inflammatory signals ([3]; in the presence of OSM): strongly inhibits increases in these proteins in the presence of OSM; endogenous levels of proteins mediating pro-inflammatory signals ([3]; without OSM): little effect; breakdown of collagen and aggrecan (aggrecan-neo, collagen-neo epitopes) ([2]; listed as CX-011): prevents the breakdown of collagen and aggrecan; increase in catalytic enzymes / induction of proteolytic gene expression ([2]; listed as CX-011): prevents; breakdown of collagen and aggrecan (aggrecan-neo, collagen-neo epitopes) ([2]; listed as CX-011 (B8)): almost completely blocked the generation of aggrecan and collagen neoepitopes; increase in catalytic enzymes / induction of proteolytic gene expression ([2]; listed as CX-011 (B8)): reduced the induction of proteolytic gene expression; levels of active STAT3 (pSTAT3) and MYC proteins ([5]; listed as CX-011): do not affect levels of pSTAT3 or MYC protein; levels of active STAT3 (pSTAT3) and MYC proteins ([5]; listed as CX-011 (B8)): did not increase levels of pSTAT3 and MYC
Cc1ccc(-c2cccc(NC(=O)c3ccno3)n2)cc1 [B810] | can also strongly prevent the breakdown of collagent and aggrecan | – | pSTAT3 and MYC activating | –
Cc1ccc(-c2nc(NC(=O)c3ccccn3)cs2)cc1 [B843] | can still strongly prevent the breakdown of collagen and aggrecan | – | – | –
Cc1ccc(-c2csc(NC(=O)c3cnco3)n2)cc1 [B803] | – | inhibit OSM-mediated activation of gp130; also recorded: inhibit OSM-mediate d activation of gp130 | – | –
Cc1ccccc1-c1csc(NC(=O)c2ccno2)n1 [B815] | – | inhibit OSM-mediated activation of gp130; also recorded: inhibit OSM-mediate d activation of gp130 | – | –
O=C(Nc1nc(C2CC2)cs1)c1ccno1 [B826] | can still strongly prevent the breakdown of collagen and aggrecan | strongly inhibits OSM-mediated activation of gp130 | – | –
Cc1ccc(-c2csc(NC(=O)c3oncc3C)n2)cc1 [B840] | can also strongly prevent the breakdown of collagent and aggrecan | – | pSTAT3 and MYC activating | –
Cc1ccccc1-c1cccc(NC(=O)c2ccno2)n1 [B849] | can still strongly prevent the breakdown of collagen and aggrecan | – | – | –
IL-6: IL-6 family cytokine | – | – | increased levels of active STAT3 and MYC proteins | activation of the MAPK, AKT and NF-κB pathways [5]: activated the MAPK, AKT and NF-κB pathways; expression of proteolytic enzymes ADAMTS4/5 and MMP13 (ADAMTS4/5 and MMP13): significant increases in the expression of these genes
LIF: leukemia inhibitory factor, IL-6 family cytokine | – | – | increased levels of active STAT3 and MYC proteins | activation of the MAPK, AKT and NF-κB pathways [5]: activated the MAPK, AKT and NF-κB pathways; expression of proteolytic enzymes ADAMTS4/5 and MMP13 (ADAMTS4/5 and MMP13): significant increases in the expression of these genes
OSM: pro-inflammatory cytokine oncostatin M (protein, UniProt P13725 26-221, looked up) Oncostatin-M: AAIGSCSKEYRVLLGQLQKQTDLMQDTSRLLDPYIRIQGLDVPKLREHCRERPGAFPSEETLRGLGRRGFLQTLNATLGCVLHRLADLEQRLPKAQDLERSGLNIEDLEKLQMARPNILGLRNNIYCMAQLLDNSDTAEPTKAGRGASQPPTPTPASDAFQRKLEGCRFLHGYHRFMHSVGRVFSKWGESPNRSRR | – | – | – | levels of MMP13 and ADAMTS4 (degradation of cartilage matrix proteins) (MMP13 and ADAMTS4): upregulates levels of MMP13 and ADAMTS proteases
